Laboratory results taken from patent US20030232822A1, “Indole derivatives useful for the treatment of CNS disorders” (H. Lundbeck A/S, priority 2000, published 2003).
pIC50: −log10 of the molar value. Structures can show the parent of a compound that is named as a salt. Where two headings read alike, the source gives them in different places.

Columns and labels:
5-HT2A receptors = target: T1, 5-HT2A receptors (Rattus norvegicus, UniProt P14842); experiment: Inhibition of the binding of [3H]Ketanserin to 5-HT2A receptors; conditions: for inhibition at 0.1 µM: read-out: 5-HT2A-binding (% inhibition); for 5-HT2A-binding (% inhibition): at 100 nM
T1 construct: membranes from rat brain (cortex) in vitro; from tissue; host or cells: rat brain cortex membranes
T1 sequence (P14842 whole entry): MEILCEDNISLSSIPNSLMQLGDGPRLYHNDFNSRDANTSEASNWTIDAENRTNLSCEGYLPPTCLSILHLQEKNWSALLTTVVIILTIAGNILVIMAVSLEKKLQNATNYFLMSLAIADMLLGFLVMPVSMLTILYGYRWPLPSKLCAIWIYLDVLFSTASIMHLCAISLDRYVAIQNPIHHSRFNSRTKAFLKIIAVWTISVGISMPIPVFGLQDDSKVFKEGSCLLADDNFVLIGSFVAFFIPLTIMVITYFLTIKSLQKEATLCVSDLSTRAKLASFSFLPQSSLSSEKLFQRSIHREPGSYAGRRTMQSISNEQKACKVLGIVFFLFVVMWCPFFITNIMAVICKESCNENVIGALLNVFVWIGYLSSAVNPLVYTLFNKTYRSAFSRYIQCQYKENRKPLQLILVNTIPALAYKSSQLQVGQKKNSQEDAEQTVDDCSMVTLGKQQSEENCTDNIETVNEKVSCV
Experimental: Inhibition of the Binding of [^3H]Ketanserin to 5-HT2A Receptors
The compounds were tested with respect to their affinity for 5-HT2A receptors by determining their ability to inhibit the binding of [^3H]Ketanserin (0.50 nM) to membranes from rat brain (cortex) in vitro. Method described in Sanchez et al. Drug Dev. Res. 1991, 22, 239-250.

[1] = target: T2, human cloned dopamine D4.2 receptors (Homo sapiens, UniProt P21917, DEL265-296); experiment: Inhibition of the binding of [3H]YM-09151-2 to human dopamine D4.2 receptors; conditions: [3H]YM-09151-2 0.06 nM, membranes of CHO-cells; for D4-binding (% inhibition): at 50 nM
T2 construct: expressed in transfected cells; host or cells: CHO cells
T2 sequence (P21917 with tags, fused parts or gaps DEL265-296): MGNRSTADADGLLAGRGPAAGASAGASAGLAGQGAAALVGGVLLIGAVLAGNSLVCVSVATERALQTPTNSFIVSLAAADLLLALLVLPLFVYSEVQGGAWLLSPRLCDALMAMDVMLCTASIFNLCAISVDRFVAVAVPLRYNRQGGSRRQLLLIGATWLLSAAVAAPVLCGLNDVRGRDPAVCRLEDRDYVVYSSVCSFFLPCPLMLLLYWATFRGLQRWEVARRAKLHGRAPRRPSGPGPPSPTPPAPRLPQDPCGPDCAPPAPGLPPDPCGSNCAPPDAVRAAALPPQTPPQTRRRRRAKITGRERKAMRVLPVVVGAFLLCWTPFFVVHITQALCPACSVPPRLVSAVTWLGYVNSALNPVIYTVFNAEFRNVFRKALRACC
Experimental: Inhibition of the Binding of [^3H]YM-09151-2 to Human Dopamine D4.2 Receptors
By this method, the inhibition by drugs of the binding of [^3H]YM-09151-2 (0.06 nM) to membranes of human cloned dopamine D4.2 receptors expressed in CHO-cells is determined in vitro. Method modified from NEN Life Science Products, Inc., technical data certificate PC2533-10/96.

dopamine D4 receptors = target: T3, dopamine D4 receptors (Homo sapiens, UniProt P21917); conditions: various in vitro efficacy assays, Gazi et al.; cited from earlier work
T3 sequence (P21917 1-419): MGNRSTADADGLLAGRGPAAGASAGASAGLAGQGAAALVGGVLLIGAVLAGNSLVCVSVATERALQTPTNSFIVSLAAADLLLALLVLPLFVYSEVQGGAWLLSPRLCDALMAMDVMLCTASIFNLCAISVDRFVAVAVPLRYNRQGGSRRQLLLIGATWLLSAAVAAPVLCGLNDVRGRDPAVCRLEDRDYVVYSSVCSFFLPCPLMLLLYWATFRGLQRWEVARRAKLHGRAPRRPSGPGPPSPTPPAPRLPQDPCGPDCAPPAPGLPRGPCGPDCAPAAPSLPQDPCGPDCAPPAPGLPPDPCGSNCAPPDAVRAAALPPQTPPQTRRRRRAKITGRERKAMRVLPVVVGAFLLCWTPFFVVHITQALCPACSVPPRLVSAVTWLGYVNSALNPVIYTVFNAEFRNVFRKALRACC

[2] = [3H]Ketanserin 0.50 nM, membranes from rat brain (cortex), read-out: 5-HT2A-binding (IC50)
[3] = [3H]Ketanserin 0.50 nM, membranes from rat brain (cortex)

| Structure (SMILES) | pIC50 (5-HT2A receptors; [2]) | pIC50 [1] | D4-binding (% inhibition) [1] | also measured |
| --- | --- | --- | --- | --- |
| O=C1CCc2ccccc2N1CCCCN1CCN(c2ccc3[nH]ccc3c2)CC1 (as salt: hydrochloride) [Compound 2b, 5-{4-[4-(2-Oxo-3,4-dihydro-2H-quinolin-1-yl)butan-1-yl]piperazin-1-yl}-1H-indole] |  |  |  | melting point: 233 to 236 °C |
| O=C1CCc2ccccc2N1CCN1CCN(c2ccc3[nH]ccc3c2)CC1 [Compound 1, 5-{4-[2-(2-Oxo-3,4-dihydro-2H-quinolin-1-yl)ethyl]piperazin-1-yl}-1H-indole] | 7.54 |  | 90% at 50 nM |  |
| O=C1CCc2ccccc2N1CCCN1CCN(c2ccc3[nH]ccc3c2)CC1 [Compound 2a, 5-{4-[3-(2-Oxo-3,4-dihydro-2H-quinolin-1-yl)propan-1-yl]piperazin-1-yl}-1H-indole] | 7.89 | 8.49 |  |  |
| O=C1CCc2ccccc2N1CCCCN1CCN(c2ccc3[nH]ccc3c2)CC1 [Compound 2b, 5-{4-[4-(2-Oxo-3,4-dihydro-2H-quinolin-1-yl)butan-1-yl]piperazin-1-yl}-1H-indole] | 7.77 | 7.74 |  |  |
| O=C1CCc2ccccc2N1CCCN1CCN(c2ccc3cc[nH]c3c2)CC1 [Compound 2c] | 7.49 |  | 94% at 50 nM |  |
| O=C1CCc2ccccc2N1CCCCN1CCN(c2ccc3cc[nH]c3c2)CC1 [Compound 2d, 6-{4-[4-(2-Oxo-3,4-dihydro-2H-quinolin-1-yl)butan-1-yl]piperazin-1-yl}-1H-indole] |  |  | 58% at 50 nM | inhibition at 0.1 µM (5-HT2A receptors): 46% |
| O=C1CCc2ccccc2N1CCCN1CC=C(c2ccc3[nH]ccc3c2)CC1 [Compound 2e, 5-{1-[3-(2-Oxo-3,4-dihydro-2H-quinolin-1-yl)propan-1-yl]-3,6-dihydro-2H-pyridin-4-yl}-1H-indole] |  | 9.01 |  | pIC50 (5-HT2A receptors): 8.18 |
| O=C1CCc2ccccc2N1CCCN1CCC(c2ccc3[nH]ccc3c2)CC1 [Compound 2f, 5-{1-[3-(2-Oxo-3,4-dihydro-2H-quinolin-1-yl)propan-1-yl]piperidin-4-yl}-1H-indole] | 7.66 | 8.80 |  |  |
| O=C1COc2ccccc2N1CCCCN1CCN(c2ccc3[nH]ccc3c2)CC1 [Compound 3a, 5-{4-[4-(3-Oxo-3,4-dihydro-2H-1,4-benzoxazin-4-yl)butan-1-yl]piperazin-4-yl}-1H-indole] |  |  | 56% at 50 nM | 5-HT2A-binding (% inhibition) (5-HT2A receptors; [3]): 89% at 100 nM |
| O=C1c2ccccc2CCN1CCCN1CCN(c2ccc3[nH]ccc3c2)CC1 [Compound 3b] | 7.05 |  | 78% at 50 nM |  |
| O=C1c2ccccc2CCN1CCCCN1CCN(c2ccc3[nH]ccc3c2)CC1 [Compound 3c] |  |  | 56% at 50 nM | 5-HT2A-binding (% inhibition) (5-HT2A receptors; [3]): 93% at 100 nM |
| O=C(CCN1CCN(c2ccc3[nH]ccc3c2)CC1)N1CCc2ccccc2C1 [Compound 5a, 5-{4-[3-(3,4-Dihydro-1H-isoquinolin-2-yl)-3-oxopropan-1-yl]piperazin-1-yl}-1H-indole] |  |  | 73% at 50 nM | inhibition at 0.1 µM (5-HT2A receptors): 29% |
| CC(C)Oc1cccnc1N(C)C1CCN(Cc2ccccc2)CC1 [Compound U-101958] |  |  |  | Functional activity at D4 receptor (literature) (dopamine D4 receptors): partial D4 receptor agonists |

Now from value to compound, other results behind:

| pIC50 (5-HT2A receptors; [2]) | pIC50 [1] | Structure (SMILES) | D4-binding (% inhibition) [1] | also measured |
| --- | --- | --- | --- | --- |
| 7.57 | 8.59 | c1ccc2c(c1)CCCN2CCCN1CCN(c2ccc3[nH]ccc3c2)CC1 [Compound 4a, 5-{4-[3-(3,4-Dihydro-2H-quinolin-1-yl)propan-1-yl]piperazin-1-yl}-1H-indole] |  |  |
| 7.72 | 8.06 | c1ccc2c(c1)CCCN2CCCN1CCN(c2ccc3[nH]ccc3c2)CC1 [Compound 4b, 5-{4-[3-(3,4-Dihydro-2H-quinolin-1-yl)propan-1-yl]piperazin-1-yl}-1H-indole] |  |  |
| 8.40 |  | O=C(CCCN1CCN(c2ccc3[nH]ccc3c2)CC1)N1CCc2ccccc2C1 [Compound 5b, 5-{4-[4-(3,4-Dihydro-1H-isoquinolin-2-yl)-4-oxobutan-1-yl]piperazin-1-yl}-1H-indole] | 81% at 50 nM | melting point: 122 to 125 °C |
